Source: paper PMC10196831, “Therapeutic effect of ultra-long-lasting human C-peptide delivery against hyperglycemia-induced neovascularization in diabetic retinopathy” (Theranostics, 2023)

Columns and labels:
[1] = Intraocular C-peptide levels by human C-peptide ELISA after intravitreal injection; type: in vivo, C57BL/6 mice; settings: C57BL/6, mouse, 1.2 ug, single intravitreal injection of equimolar K9-C-peptide (20 μg) or human C-peptide (1.2 μg), whole eyeball lysate, 50 kDa cutoff filtrate, n = 6, read-out: intraocular human C-peptide level at 1 day after injection
Method: To analyze the levels of C-peptide released from intravitreal K9-C-peptide depots, mice were anesthetized with 3% isoflurane and intravitreally injected with a total volume of 2 μL containing 0.6 mg/mL (1.2 μg) C-peptide or 10 mg/mL (20 μg) K9-C-peptide. Proteins were extracted from whole eyeballs using lysis buffer containing 50 mmol/L Tris (pH 7.5), 150 mmol/L sodium chloride, 1% Triton X-100, protease inhibitor cocktail (Roche, Basel, Switzerland), 25 mmol/L β-glycerophosphate, and 2 mmol/L sodium orthovanadate. The lysates were centrifuged at 14,000 rpm for 15 min, and then the supernatants were centrifuged at 8,000 rpm for 10 min using Amicon® Ultra 4 mL centrifugal filters with a molecular weight cutoff of 50 kDa (MilliporeSigma). C-peptide levels in the filtered supernatants (n = 6) were measured using a human C-peptide ELISA kit (MilliporeSigma) according to the manufacturer's protocol.

[2] = in vivo; cited from earlier work

level at time molar at 24 h [1]: 0.07 nM
SMILES: CC(C)C[C@H](NC(=O)[C@H](C)NC(=O)[C@H](CC(C)C)NC(=O)[C@@H]1CCCN1C(=O)[C@H](CCC(N)=O)NC(=O)[C@H](CC(C)C)NC(=O)[C@H](CO)NC(=O)CNC(=O)[C@H](C)NC(=O)CNC(=O)[C@@H]1CCCN1C(=O)CNC(=O)CNC(=O)CNC(=O)[C@H](CC(C)C)NC(=O)[C@H](CCC(=O)O)NC(=O)[C@@H](NC(=O)[C@H](CCC(N)=O)NC(=O)CNC(=O)[C@@H](NC(=O)[C@H](CCC(N)=O)NC(=O)[C@H](CC(C)C)NC(=O)[C@H](CC(=O)O)NC(=O)[C@H](CCC(=O)O)NC(=O)[C@H](C)NC(=O)[C@@H](N)CCC(=O)O)C(C)C)C(C)C)C(=O)N[C@@H](CCC(=O)O)C(=O)NCC(=O)N[C@@H](CO)C(=O)N[C@@H](CC(C)C)C(=O)N[C@@H](CCC(N)=O)C(=O)O [human C-peptide]
circulating half-life [2]: 30 min
